The values that follow come from patent US11474106B2, “Methods for cytotoxic chemotherapy-based predictive assays” (ACCELERATED MEDICAL DIAGNOSTICS, INC., priority 2015, dated 2022).

For data set [1] the following is noted: cited from earlier work.
For a further data set, the system named is 5637. Briefly: MTT assay (IC50). The conditions noted are these: Homo sapiens, 72 hours. The data set is classed as cell-based, human. As to the method:
Thus, we measured the IC50 of the six NSCLC cell lines from Example 2 to both cisplatin and carboplatin to determine if the sensitivity of these six NSCLC cell lines to the two drugs are correlated.
The cell lines were purchased from the American Type Culture Collection (ATCC, Manassas, Va.) and cultured in the recommended media.
(§1) Drug-DNA adduct formation and repair was measured by accelerator mass spectrometry.
(§2) These two cell lines were also cultured with a range of concentrations of cisplatin, carboplatin, gemcitabine, doxorubicin, methotrexate and vinblastine for 72 hours to determine IC50 for these other drugs (FIG. 16C). These drugs were chosen because of their frequent use in the treatment of bladder cancer.
Background: Tetrazolium dyes change colour on reduction, which living cells bring about.

The next data set deals with 5637R. Briefly: MTT assay (IC50). Type of data set: cell-based. The note with it: Homo sapiens, 72 hours. As for the experimental part: as §1
To confirm that 5637 was the original ATCC cell line, and that 5637R originated from the parental 5637 cell line, both cultures were sent to the ATCC Cell Line Authentication Service for cell verification per the ATCC protocol. More specifically, fifteen short tandem repeat (STR) loci plus the gender determining locus, amelogenin, were amplified using the commercially available PowerPlex® 16HS Kit from Promega.
as §2

In the next data set the test system is A549 tumor xenograph. In words: Tumor response to therapeutic carboplatin in xenograft. The data set is classed as in vivo, nude mice. The note with it: single IV 37.3 mg/kg, 14 days. An excerpt: (§3) Xenograft mouse tumors consisting of one carboplatin resistant and one sensitive tumor type were established for in vivo evaluation of carboplatin-DNA monoadduct formation and repair in tumor tissue and for in vivo evaluation of tumor response to therapeutic dosing with carboplatin. Tumor xenografts were established in 1-2 month old nude mice by injecting approximately one million cells into the left and right flanks, and allowed to develop tumors of less than 1 cm^3 over approximately 4 weeks prior to DNA adduct studies. Mice bearing resistant and sensitive tumors were exposed to either a microdose or therapeutic dose of carboplatin by tail vein injection. DNA isolated from tumor tissue was evaluated for carboplatin-DNA monoadduct frequency levels as a function of time. For tumor response, mice bearing resistant and sensitive tumors were therapeutically treated with a single IV injection of 37.3 mg/kg of carboplatin and then examined for tumor growth as assessed by measuring palpable tumors with a caliper and calculating tumor volume.
(§4) Mice xenografted with sensitive (H232A) and resistant (A549) lung cancer cell lines were infused with a therapeutic dose of carboplatin to assess tumor response. The tumors were measured daily over 14 days post infusion (FIG. 10C). Tumor size was normalized as the ratio of tumor diameter to the tumor diameter measured on day 0 (no change=1.0). […]

Another data set relates to H23 2A tumor xenograph. The data set is described as above. Type of data set: in vivo, nude mice. The note with it: H23 2A xenograph; single IV 37.3 mg/kg; 14 days.
Description: as §3, §4

Data set [2] is described as follows: Human plasma pharmacokinetics of carboplatin microdose, liquid scintillation counting. The data set is classed as in vivo. The note with it: four patients. As for the experimental part: Although the pharmacokinetics of carboplatin are well known for therapeutic doses, it is not known if human pharmacokinetic parameters obtained using a microdose of carboplatin will track those obtained with therapeutic carboplatin dosing. […] This is a requirement for this diagnostic assay to be predictive of response to a therapeutic dose. The pharmacokinetics of microdose carboplatin were also measured in several different patients along with the kinetics of carboplatin-DNA monoadduct formation and repair in PBMC to establish that 24 hours post administration of a microdose of carboplatin is an appropriate time for sampling a patient for this predictive diagnostic assay.
Two of the bladder cancer patients received two doses of [^14C]carboplatin, including the initial diagnostic microdose and a second microdose at the time of full therapeutic dose. This allowed us to compare the pharmacokinetics of carboplatin in plasma after both microdosing and therapeutic dosing (FIG. 11A). […] Therefore, microdosing and therapeutic dosing yield similar carboplatin pharmacokinetics in human patients.
The pharmacokinetics of carboplatin administered as a microdose was assessed in four patients (two with bladder cancer and two with NSLC) for the purpose of comparing interpatient variability and establishing the optimum time point for tumor biopsy sample acquisition.

Setting [3] is: 5637 (parental, Example 11), MTT.

On to `O=C1[O][Pt]2([NH][C@@H]3CCCC[C@H]3[NH]2)[O]C1=O` [oxaliplatin, reference compound], for which, in data set [1] (therapeutically treated patients, read-out: plasma Cmax), the Cmax was roughly 10 µM.

Take `COc1cccc2c1C(=O)c1c(O)c3c(c(O)c1C2=O)C[C@@](O)(C(=O)CO)C[C@@H]3O[C@H]1C[C@H](N)[C@H](O)[C@H](C)O1` [doxorubicin]: the IC50 in the data set with 5637 (setting [3]) amounted to 290 nM; in the data set on 5637R (MTT), 270 nM.

Consider `CC[C@]1(O)C[C@@H]2CN(CCc3c([nH]c4ccccc34)[C@@](C(=O)OC)(c3cc4c(cc3OC)N(C)[C@H]3[C@@](O)(C(=O)OC)[C@H](OC(C)=O)[C@]5(CC)C=CCN6CC[C@]43[C@@H]65)C2)C1` [vinblastine], for which the values for the IC50 in the data set on 5637 (5637) and with 5637R were 0.6 nM and 0.61 nM, respectively.

Take `N.N.O=C([O-])C1(C(=O)[O-])CCC1.[Pt+2]` [carboplatin]: the entries for the “tumor response (tumor growth)” value in the data set on A549 tumor xenograph and in the data set with H23 2A tumor xenograph were “continued to grow” and “did not display any growth”, respectively. Besides, in data set [2], the “time to clearance from the blood” value was no more than 24 h. Moreover, in data set [1] (in vivo), the “in vivo half-life in patients” value is 1.3 to 6 h.

On to `CN(Cc1cnc2nc(N)nc(N)c2n1)c1ccc(C(=O)N[C@@H](CCC(=O)O)C(=O)O)cc1` [methotrexate], for which the IC50 is 2010 nM in the data set with 5637 (setting [3]) and 1240 nM in the data set with 5637R (MTT).

Regarding `Nc1ccn([C@@H]2O[C@H](CO)[C@@H](O)C2(F)F)c(=O)n1` [gemcitabine], the IC50 in the data set on 5637 (setting [3]) is 120 nM; in the data set on 5637R (MTT), 1440 nM.

The term Cmax denotes the peak of the concentration-time curve. In general, IC50 refers to the midpoint of a concentration-inhibition curve.
